In ChEMBL document CHEMBL1201862, “PubChem BioAssay data set” (2004):
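Results reflect a 48-hour exposure of cells in 96-well plates to compound at five concentrations. GI50 = concentration required for 50% inhibition of growth.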 Activity calls are given as the source filed them. No stated cut-off is given here; in the data, active = GI50 up to about 1.1 µM and inactive = higher.

Tests used:
Assay in all cases: NCI tumour cell line growth inhibition, 48 h
ACHN = tested on: ACHN
M14 = tested on: M14
MCF7 = tested on: MCF7
MDA-MB-231 = tested on: MDA-MB-231
NCI-H522 = tested on: NCI-H522
NCI/ADR-RES = tested on: NCI/ADR-RES
OVCAR-3 = tested on: OVCAR-3
OVCAR-8 = tested on: OVCAR-8
PC-3 = tested on: PC-3
SF-295 = tested on: SF-295
SK-MEL-28 = tested on: SK-MEL-28
SK-MEL-5 = tested on: SK-MEL-5
SN12C = tested on: SN12C
SNB-19 = tested on: SNB-19
SW-620 = tested on: SW-620
T47D = tested on: T47D
TK-10 = tested on: TK-10
UACC-257 = tested on: UACC-257
UACC-62 = tested on: UACC-62
UO-31 = tested on: UO-31

SMILES	GI50 (ACHN)	GI50 (M14)	GI50 (MCF7)	GI50 (MDA-MB-231)	GI50 (NCI-H522)	GI50 (NCI/ADR-RES)	GI50 (OVCAR-3)	GI50 (OVCAR-8)	GI50 (PC-3)	GI50 (SF-295)	GI50 (SK-MEL-28)	GI50 (SK-MEL-5)	GI50 (SN12C)	GI50 (SNB-19)	GI50 (SW-620)	GI50 (T47D)	GI50 (TK-10)	GI50 (UACC-257)	GI50 (UACC-62)	GI50 (UO-31)
CN(C)CCNC(=O)c1cccc2nc3c(nc12)-c1ccccc1C3=O	4.78 µM (inactive)	15.8 µM (inactive)	6.34 µM (inactive)	7.89 µM (inactive)	13.5 µM (inactive)	12.4 µM (inactive)	16.6 µM (inactive)	16.4 µM (inactive)	17.6 µM (inactive)	17.9 µM (inactive)	16 µM (inactive)	12.1 µM (inactive)	11 µM (inactive)	18.3 µM (inactive)	6.43 µM (inactive)	12.9 µM (inactive)	18.6 µM (inactive)	13.4 µM (inactive)	19.1 µM (inactive)	12.1 µM (inactive)
CN(O)C(=S)c1ccccc1	4.42 µM (inactive)	3.98 µM (inactive)	1.1 µM (active)	9.33 µM (inactive)	0.0944 µM (active)	0.746 µM (active)	2.45 µM (inactive)	2.47 µM (inactive)	3.23 µM (inactive)	3.48 µM (inactive)	3.31 µM (inactive)	1.7 µM (inactive)	5.18 µM (inactive)	30.2 µM (inactive)	1.25 µM (inactive)	16.4 µM (inactive)	> 78.2 µM (inactive)	13.1 µM (inactive)	1.85 µM (inactive)	5.35 µM (inactive)
CCN(CC)C(=O)Cn1c(-c2ccccc2)cc2ccccc21	30.9 µM (inactive)	87.3 µM (inactive)	33.5 µM (inactive)	37.5 µM (inactive)	28 µM (inactive)	23.4 µM (inactive)	> 100 µM (inactive)	35.9 µM (inactive)	22.9 µM (inactive)	–	52.6 µM (inactive)	15.6 µM (inactive)	97.3 µM (inactive)	42.8 µM (inactive)	43.2 µM (inactive)	42 µM (inactive)	34.9 µM (inactive)	41.9 µM (inactive)	> 10 µM (inactive)	17.5 µM (inactive)
CCCCC1(NN=C2CCCCC2)C(=O)N(c2ccccc2)N(c2ccccc2)C1=O	> 100 µM (inactive)	> 100 µM (inactive)	> 100 µM (inactive)	> 100 µM (inactive)	83 µM (inactive)	> 100 µM (inactive)	> 100 µM (inactive)	> 100 µM (inactive)	> 100 µM (inactive)	> 100 µM (inactive)	> 100 µM (inactive)	> 100 µM (inactive)	> 100 µM (inactive)	> 100 µM (inactive)	> 100 µM (inactive)	> 100 µM (inactive)	> 100 µM (inactive)	> 100 µM (inactive)	> 100 µM (inactive)	> 100 µM (inactive)
Cc1cccc(NC(=O)/C=C/c2ccc([N+](=O)[O-])cc2)c1	14.9 µM (inactive)	> 43.4 µM (inactive)	> 22.3 µM (inactive)	22.4 µM (inactive)	7.45 µM (inactive)	29.8 µM (inactive)	12.5 µM (inactive)	> 37.2 µM (inactive)	14.7 µM (inactive)	29 µM (inactive)	> 42 µM (inactive)	> 36.4 µM (inactive)	> 41.2 µM (inactive)	> 33.2 µM (inactive)	> 45.3 µM (inactive)	> 37.8 µM (inactive)	> 41.5 µM (inactive)	> 39 µM (inactive)	> 41.9 µM (inactive)	> 35.5 µM (inactive)
COc1cc2c(cc1OC)-c1cc3ccccc3c(=O)n1CCC2	13.4 µM (inactive)	14.8 µM (inactive)	7.71 µM (inactive)	5.47 µM (inactive)	9.25 µM (inactive)	5.27 µM (inactive)	15.9 µM (inactive)	9.35 µM (inactive)	8.51 µM (inactive)	11.1 µM (inactive)	17.9 µM (inactive)	11.4 µM (inactive)	13.1 µM (inactive)	18 µM (inactive)	8.32 µM (inactive)	17.9 µM (inactive)	16.3 µM (inactive)	19.8 µM (inactive)	11.4 µM (inactive)	13 µM (inactive)
O=C1CC(c2ccccc2)n2c(nc3ccccc32)N1 (centres undefined)	> 100 µM (inactive)	> 100 µM (inactive)	67.1 µM (inactive)	> 100 µM (inactive)	29.9 µM (inactive)	> 100 µM (inactive)	54.2 µM (inactive)	> 100 µM (inactive)	> 100 µM (inactive)	> 100 µM (inactive)	–	20.5 µM (inactive)	–	> 100 µM (inactive)	51.9 µM (inactive)	25.4 µM (inactive)	> 100 µM (inactive)	41.9 µM (inactive)	72.9 µM (inactive)	> 100 µM (inactive)
NNC(=O)C(O)C(O)C(=O)NN (centres undefined)	> 100 µM (inactive)	> 100 µM (inactive)	> 100 µM (inactive)	> 100 µM (inactive)	54.5 µM (inactive)	> 100 µM (inactive)	> 100 µM (inactive)	> 100 µM (inactive)	> 100 µM (inactive)	> 100 µM (inactive)	> 100 µM (inactive)	> 100 µM (inactive)	> 100 µM (inactive)	> 100 µM (inactive)	> 100 µM (inactive)	> 100 µM (inactive)	> 100 µM (inactive)	> 100 µM (inactive)	> 100 µM (inactive)	> 100 µM (inactive)
O=S1(=O)c2ccccc2NC(=S)N1c1ccccc1	70.6 µM (inactive)	29.5 µM (inactive)	63.2 µM (inactive)	> 57.8 µM (inactive)	21.3 µM (inactive)	60.1 µM (inactive)	41.4 µM (inactive)	34.6 µM (inactive)	58.3 µM (inactive)	3.49 µM (inactive)	> 89.9 µM (inactive)	32 µM (inactive)	62.2 µM (inactive)	7.1 µM (inactive)	> 100 µM (inactive)	69.5 µM (inactive)	> 72.4 µM (inactive)	40 µM (inactive)	65.9 µM (inactive)	36.7 µM (inactive)
O=C1Nc2ccccc2/C1=N/NC(=S)Nc1cccc(Cl)c1	6.34 µM (inactive)	10.4 µM (inactive)	8.43 µM (inactive)	11.1 µM (inactive)	21.9 µM (inactive)	2.37 µM (inactive)	2.68 µM (inactive)	5.04 µM (inactive)	8.02 µM (inactive)	4.81 µM (inactive)	35.2 µM (inactive)	4.57 µM (inactive)	14.4 µM (inactive)	16.6 µM (inactive)	4.09 µM (inactive)	48.9 µM (inactive)	31.4 µM (inactive)	29.4 µM (inactive)	8.41 µM (inactive)	19.5 µM (inactive)
COC(=O)[C@@H]1CC(C(CN)c2cn(C(=O)OC(C)(C)C)c3ccccc23)C(=O)N1C(=O)OC(C)(C)C (some centres undefined)	29.3 µM (inactive)	50.7 µM (inactive)	23.8 µM (inactive)	22.4 µM (inactive)	22.5 µM (inactive)	17.2 µM (inactive)	24.6 µM (inactive)	21.7 µM (inactive)	18.4 µM (inactive)	21.6 µM (inactive)	17.3 µM (inactive)	17.2 µM (inactive)	17.8 µM (inactive)	69.3 µM (inactive)	50.7 µM (inactive)	44.2 µM (inactive)	38.9 µM (inactive)	17.7 µM (inactive)	15.1 µM (inactive)	32.4 µM (inactive)
CC(C)(C)N(Cc1ccccc1)C(=O)/C=C\[S+]([O-])c1ccccc1 (centres undefined)	4.71 µM (inactive)	2.51 µM (inactive)	2.92 µM (inactive)	3.27 µM (inactive)	1.19 µM (inactive)	2.55 µM (inactive)	2.48 µM (inactive)	1.84 µM (inactive)	3.56 µM (inactive)	13.4 µM (inactive)	7.73 µM (inactive)	5.25 µM (inactive)	2.61 µM (inactive)	9.77 µM (inactive)	2.15 µM (inactive)	4.2 µM (inactive)	6.75 µM (inactive)	5.08 µM (inactive)	4.39 µM (inactive)	2.34 µM (inactive)
CCO[C@H]1O[C@@H]2OC3(C)CCC4[C@H](C)CCC([C@H]1C)[C@]42OO3 (some centres undefined)	32.2 µM (inactive)	53.5 µM (inactive)	19.4 µM (inactive)	> 57 µM (inactive)	43.5 µM (inactive)	23 µM (inactive)	15.5 µM (inactive)	0.881 µM (active)	0.729 µM (active)	> 20.2 µM (inactive)	> 75.5 µM (inactive)	16 µM (inactive)	68.2 µM (inactive)	> 100 µM (inactive)	> 44.9 µM (inactive)	7.11 µM (inactive)	> 95.5 µM (inactive)	–	> 67.1 µM (inactive)	15.4 µM (inactive)
O=c1c2cc(-c3ccccc3)sc2nc2n1N=C(c1ccc(Cl)cc1)CS2	> 100 µM (inactive)	–	> 100 µM (inactive)	> 100 µM (inactive)	> 100 µM (inactive)	> 100 µM (inactive)	> 100 µM (inactive)	> 100 µM (inactive)	> 100 µM (inactive)	> 100 µM (inactive)	> 100 µM (inactive)	> 100 µM (inactive)	> 100 µM (inactive)	–	> 100 µM (inactive)	57.5 µM (inactive)	> 100 µM (inactive)	> 100 µM (inactive)	> 100 µM (inactive)	> 100 µM (inactive)
